Data on 6 compounds can be found in US11639348B2, “Compositions and methods for neuraminidase detection and quantification” (priority 2018, dated 2023).

“Also recorded” adds a separate entry of the source.

Data set [1] addresses influenza N2 subtype neuraminidase from A/Hong Kong/1/68 (H3N2) (Influenza A virus, UniProt Q91MA2). The class given is biochemical, influenza A/Hong Kong/1/68 (H3N2). The following applies: pH 7.6.
Data set [2] is described as follows: Spontaneous hydrolysis of stock solution.
Data set [3] deals with sialidase from Micromonospora viridifaciens (NedA) (Micromonospora viridifaciens, UniProt Q02834). The class given is biochemical.
sialidase from Micromonospora viridifaciens (NedA), sequence (Q02834 38-647): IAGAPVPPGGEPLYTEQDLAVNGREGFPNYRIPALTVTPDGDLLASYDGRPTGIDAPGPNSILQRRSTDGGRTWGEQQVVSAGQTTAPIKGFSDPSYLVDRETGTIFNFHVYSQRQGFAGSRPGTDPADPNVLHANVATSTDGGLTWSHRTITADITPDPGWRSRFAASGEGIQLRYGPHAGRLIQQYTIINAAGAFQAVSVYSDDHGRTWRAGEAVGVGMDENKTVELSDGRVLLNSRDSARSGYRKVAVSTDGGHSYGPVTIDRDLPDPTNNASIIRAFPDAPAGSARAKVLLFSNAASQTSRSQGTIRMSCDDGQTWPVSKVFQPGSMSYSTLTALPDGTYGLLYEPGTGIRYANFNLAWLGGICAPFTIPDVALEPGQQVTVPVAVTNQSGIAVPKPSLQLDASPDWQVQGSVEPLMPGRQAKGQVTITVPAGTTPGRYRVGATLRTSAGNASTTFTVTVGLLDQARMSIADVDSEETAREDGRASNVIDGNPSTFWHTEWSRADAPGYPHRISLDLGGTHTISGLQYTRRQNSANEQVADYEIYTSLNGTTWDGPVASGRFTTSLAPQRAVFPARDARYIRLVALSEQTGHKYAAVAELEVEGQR
In the next data set the test system is NA activity of virus. The class given is biochemical.
For the next data set, the system named is B/Hong Kong/05/1972 NA. The class given is biochemical, influenza B/Hong Kong/05/1972. As to conditions: pH 7.6.
In the next data set the test system is B/Florida/04/2006 NA. The class given is biochemical, influenza B/Florida/04/2006. The following applies: pH 7.6.
Data set [4] concerns A/California/07/2009 H1N1 NA. The class given is biochemical, influenza A/California/07/2009 H1N1. The following applies: pH 7.6.
Data set [5] concerns the target NA of A/WS/33 (H1N1) influenza virus (Influenza A virus, UniProt P03470). The class given is biochemical, influenza A/WS/33 (H1N1).
Data set [6] deals with A/Washington/10/2008 H1N1 NA. The class given is biochemical, influenza A/Washington/10/2008 H1N1. The following applies: pH 7.6.
The test system of the next data set is influenza virus NAs. The class given is biochemical.
Data set [7] deals with A/Brisbane/59/2007 H1N1 NA. The class given is biochemical, influenza A/Brisbane/59/2007 H1N1. As to conditions: pH 7.6.
Another data set deals with influenza B NAs. The class given is biochemical.
The subject of data set [8] is CC(=O)NC1C(NC(=N)N)C(F)C(Oc2c(F)cc3c(C)cc(=O)oc3c2F)(C(=O)O)OC1[C@H](O)[C@H](O)CO. Briefly: purified protein, by the assay type. The following applies: pH 7.6; 30.0 °C.

NA of A/WS/33 (H1N1) influenza virus, sequence (P03470 whole entry, looked up): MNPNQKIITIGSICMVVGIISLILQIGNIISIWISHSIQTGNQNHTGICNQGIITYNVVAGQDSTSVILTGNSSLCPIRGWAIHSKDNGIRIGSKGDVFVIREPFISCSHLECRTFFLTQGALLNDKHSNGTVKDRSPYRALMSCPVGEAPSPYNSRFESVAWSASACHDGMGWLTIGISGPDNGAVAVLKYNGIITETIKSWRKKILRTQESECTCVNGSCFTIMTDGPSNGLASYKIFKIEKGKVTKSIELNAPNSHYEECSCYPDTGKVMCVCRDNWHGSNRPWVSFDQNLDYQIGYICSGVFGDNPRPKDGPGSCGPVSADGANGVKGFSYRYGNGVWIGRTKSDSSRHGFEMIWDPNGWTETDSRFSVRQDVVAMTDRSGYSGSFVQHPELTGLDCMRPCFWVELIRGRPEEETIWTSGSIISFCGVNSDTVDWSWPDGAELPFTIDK
influenza N2 subtype neuraminidase from A/Hong Kong/1/68 (H3N2), sequence (Q91MA2 whole entry, looked up): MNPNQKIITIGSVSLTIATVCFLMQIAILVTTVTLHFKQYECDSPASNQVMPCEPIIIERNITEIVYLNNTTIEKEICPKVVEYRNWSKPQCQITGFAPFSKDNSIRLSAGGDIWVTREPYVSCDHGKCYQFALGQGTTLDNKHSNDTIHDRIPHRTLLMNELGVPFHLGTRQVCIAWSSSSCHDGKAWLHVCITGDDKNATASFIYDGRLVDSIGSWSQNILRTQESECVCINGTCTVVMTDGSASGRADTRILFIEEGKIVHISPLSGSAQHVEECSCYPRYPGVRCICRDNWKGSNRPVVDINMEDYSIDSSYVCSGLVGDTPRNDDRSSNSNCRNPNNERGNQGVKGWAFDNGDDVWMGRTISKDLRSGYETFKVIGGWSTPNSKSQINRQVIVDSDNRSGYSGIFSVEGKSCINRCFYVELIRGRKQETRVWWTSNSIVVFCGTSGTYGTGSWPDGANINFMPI

For the compound `CC(=O)NC1C(N)C(F)C(Oc2c(F)cc3c(C)cc(=O)oc3c2F)(C(=O)O)OC1[C@H](O)[C@H](O)CO` (stereo partly drawn) [compound 2, 5-Acetamido-4-amino-3-fluoro-3,4,5-trideoxy-2α-(4-methyl-6,8-difluoromethylumbelliferyl)-D-glycero-D-galactononulopyranosylnoic acid], the “burst and turnover on titration of N2” value in data set [1] is “produced a burst, but significant turnover was still observed”.
In the case of `CC(=O)NC1C(O)C(F)C(Oc2c(F)cc3c(C)cc(=O)oc3c2F)(C(=O)O)OC1[C@H](O)[C@H](O)CO` (stereo partly drawn) [compound 1, 5-Acetamido-3-fluoro-3,5-dideoxy-2α-(4-methyl-6,8-difluoromethylumbelli-feryl)-D-glycero-D-galactononulopyranosylnoic Acid], the “stability of stock solution” value in data set [2] is listed as “undergoes slow spontaneous hydrolysis”. The “burst and turnover on titration of N2” value in [1] is given as “a burst was indeed seen, but significant turnover was also observed”. In addition, in [3], the “NedA concentration down to which burst size vs concentration is linear” value is recorded as not above 0.7 nM. Further, the “fluorescence response on titration of NedA (burst and turnover)” value in data set [3] (pH 7.6) is “a classical burst phase of increased fluorescence was observed, followed by a steady-state phase”.
With `O=C1CCO1` [β-propiolactone], the “effect on NA activity compared to live virus” value in the data set on NA activity of virus is listed as “significantly reduced NA activities; also recorded: dramatically reduced NA activities”.
`CC(=O)NC1C(NC(=N)N)C(F)C(Oc2c(F)cc3c(C)cc(=O)oc3c2F)(C(=O)O)OC1[C@H](O)[C@H](O)CO` (stereo partly drawn) [compound 3, 5-Acetamido-4-guanidine-3-fluoro-3,4,5-trideoxy-2α-(4-methyl-6,8-difluoromethylumbelliferyl)-D-glycero-D-galactononulopyranosylnoic acid]: the Km came out at 29.6 µM in the data set on B/Hong Kong/05/1972 NA; 28.6 µM with B/Florida/04/2006 NA; 31.9 µM in [4]; 62.2 µM in [6]; 41.1 µM in data set [7]. The kcat in the data set with B/Hong Kong/05/1972 NA is 30.0 s⁻¹; in the data set with B/Florida/04/2006 NA, 26.7 s⁻¹; in data set [4], 76.4 s⁻¹; in [6], 63.3 s⁻¹; in [7] it was 32.6 s⁻¹. Also, the “NA concentration down to which reliable data are given” value in [5] is reported as “approximately 200 pM”. In addition, the “burst, F2Mu released” value in [5] worked out at 27 nM. Further, the “initial concentration of NA in the original virus sample” value in data set [5] amounted to 1.08 µM. In data set [1], the “burst and turnover on titration of N2” value is recorded as “no detectable turnover at all, while a rapid initial burst was observed”. Besides, the “response on incubation with GH33 sialidase NedA” value in [3] was “no significant response”. Besides, the “time to reach plateau of titration” value with influenza virus NAs is “about 30 min”. Moreover, the time to inactivation entry with influenza B NAs is given as “within several seconds”.
Regarding “(Influenza A virus (A/Hong Kong/1/1968(H3N2)))”, in data set [8], the Km was 45.6 µM, the kcat came out at 76.7 s⁻¹ and the kcat/Km is 1.68e+06 M⁻¹ s⁻¹.
As to nonyl phenoxypolyethoxylethanol [NP40], the “effect on NA activity compared to live virus” value with NA activity of virus is given as “did not affect the NA activity; also recorded: did not affect the NA activities”.

Usually Km stands for the substrate concentration at which the rate is half of its maximum. Broadly, the kcat is the number of substrate molecules converted per active site and unit of time at saturation. As usually defined, the kcat/Km is the second-order rate constant that governs catalysis at low substrate concentration.
